Among the test systems are SK-OV-3 ovarian; HCC-2998 colon; KM12 colon; SF-539 CNS; OVCAR-5 ovarian; SNB-75 CNS; TK-10 renal; CCRF-CEM leukemia.
Assay in all cases: NCI anticancer screen, dose series, 48 h

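Step 1: Grow cells in 96-well plates. Step 2: Expose to compound for 48 hours at 5 concentrations. Step 3: Interpolate endpoints linearly; if unreached, use highest concentration. TGI marks complete inhibition of growth.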

For the compound `COc1ccc2nc3cccc(C(=O)NCCN(C)C)c3nc2c1`, the TGI with SK-OV-3 ovarian is greater than 28 µM; in the assay on HCC-2998 colon it was 6.16 µM; in the assay with KM12 colon it was 9.82 µM; in the assay on SF-539 CNS, 8.8 µM; with OVCAR-5 ovarian it was 6.17 µM; in the assay on SNB-75 CNS, 21.6 µM. The compound further gave a TGI in the assay with TK-10 renal of 8.6 µM.
Consider `CC1=C(C(=O)Nc2ccccc2)C(c2ccc(C(C)C)cc2)C(C(=O)Nc2ccccc2)=C(C)N1`, for which the TGI in the assay with SK-OV-3 ovarian was found to be 82.9 µM; with HCC-2998 colon, 20.9 µM; in the assay on KM12 colon it was 77.8 µM; with SF-539 CNS, 17.6 µM; with OVCAR-5 ovarian, 38.5 µM; in the assay on SNB-75 CNS it was 99.3 µM. Moreover, the TGI with TK-10 renal was greater than 100 µM; in the assay with CCRF-CEM leukemia, 75.2 µM.
For `CC(=O)O[C@H]1C=CC23OC(=O)[C@]1(C)[C@H]2[C@H](C(=O)O)C12CC(=O)[C@@](CO)(CC[C@H]13)C2`, the TGI with SK-OV-3 ovarian, with HCC-2998 colon, in the assay on KM12 colon, in the assay on SF-539 CNS, in the assay with OVCAR-5 ovarian and with TK-10 renal was greater than 100 µM in each case. In addition, in the assay with CCRF-CEM leukemia, the TGI is greater than 100 µM.
For the compound `C[n+]1c(N)n(C(=O)OCc2ccccc2)c(=O)c2c1ncn2C(=O)OCc1ccccc1`, the TGI is greater than 100 µM in the assay on SK-OV-3 ovarian; greater than 100 µM in the assay on HCC-2998 colon; greater than 100 µM in the assay with KM12 colon; greater than 100 µM in the assay on OVCAR-5 ovarian; 65.9 µM in the assay with SNB-75 CNS; greater than 100 µM in the assay with TK-10 renal. Also, in the assay on CCRF-CEM leukemia, the TGI was greater than 100 µM.
In the case of `COC(=O)Cc1nc2ccccc2o1`, the TGI in the assay on SK-OV-3 ovarian, in the assay on HCC-2998 colon, in the assay on KM12 colon, in the assay on SF-539 CNS, in the assay on OVCAR-5 ovarian and in the assay on SNB-75 CNS was greater than 100 µM each time. Besides, the TGI with TK-10 renal and in the assay with CCRF-CEM leukemia was greater than 100 µM throughout.
In the case of `COc1ccc(C(=O)O/N=C2/CCC/C2=C\c2ccccc2)cc1`, the TGI with SK-OV-3 ovarian was greater than 100 µM; with HCC-2998 colon, greater than 100 µM; in the assay with KM12 colon, greater than 100 µM; in the assay on SF-539 CNS it was 99.6 µM; in the assay with OVCAR-5 ovarian, greater than 100 µM; in the assay with SNB-75 CNS, greater than 92.9 µM. Also, the TGI with TK-10 renal and in the assay with CCRF-CEM leukemia was greater than 100 µM in each case.
On to `COc1ccc(C2=NOP(c3ccccc3)(c3ccccc3)(c3ccccc3)C2)cc1`, for which the TGI in the assay on SK-OV-3 ovarian is greater than 100 µM; in the assay on HCC-2998 colon it was greater than 76.5 µM; in the assay on KM12 colon, greater than 100 µM; with SF-539 CNS, greater than 100 µM; in the assay with OVCAR-5 ovarian, greater than 75.9 µM; with SNB-75 CNS it was greater than 89.4 µM. The TGI was greater than 100 µM with TK-10 renal and 39.6 µM in the assay on CCRF-CEM leukemia.
Turning to `Cn1cc(NC(=O)c2cc(NC(=O)CCCCCCC(=O)Nc3cc(C(=O)Nc4cc(C(=O)NCCC(=N)N)n(C)c4)n(C)c3)cn2C)cc1C(=O)NCCC(=N)N`, the TGI with SK-OV-3 ovarian was greater than 100 µM; in the assay with HCC-2998 colon, 23.2 µM; in the assay on KM12 colon, 13.3 µM; with SF-539 CNS, 31 µM; in the assay on OVCAR-5 ovarian, greater than 100 µM; in the assay with SNB-75 CNS, 38.6 µM. Besides, the TGI with TK-10 renal was 72.9 µM; in the assay with CCRF-CEM leukemia, greater than 100 µM.
In the case of `Nc1c(-c2nc3ccccc3[nH]2)sc(=S)n1-c1ccc(Cl)cc1`, the TGI with SK-OV-3 ovarian was 56.9 µM; with HCC-2998 colon, 48.8 µM; in the assay on KM12 colon it was 78.3 µM; in the assay on SF-539 CNS, 37.2 µM; with OVCAR-5 ovarian, greater than 100 µM; with SNB-75 CNS, 47.6 µM. The results for the TGI in the assay with TK-10 renal and in the assay on CCRF-CEM leukemia were 56.1 µM and greater than 100 µM, respectively.
`Nc1ccc(C(=O)N/C(=C\c2cccc([N+](=O)[O-])c2)c2nc3c4c(ccc3[nH]2)C(=O)c2ccccc2C4=O)cc1`: the TGI in the assay with SK-OV-3 ovarian is greater than 100 µM; in the assay with HCC-2998 colon it was greater than 100 µM; in the assay on SF-539 CNS it was greater than 100 µM; in the assay with OVCAR-5 ovarian, greater than 100 µM; in the assay with SNB-75 CNS, 17.8 µM; in the assay with TK-10 renal, 77 µM. The TGI with CCRF-CEM leukemia was greater than 100 µM.
Regarding `CC(C)(C)OC(=O)N1N=NC2C3OC(CC3=O)C21` (stereo not given), the TGI in the assay with SK-OV-3 ovarian, with HCC-2998 colon, in the assay with SF-539 CNS, with OVCAR-5 ovarian, in the assay on SNB-75 CNS and in the assay on TK-10 renal was greater than 100 µM each time. Besides, the TGI in the assay with CCRF-CEM leukemia is greater than 100 µM.
Turning to `O=C(/C(=C/c1ccccc1)c1ccccc1)N1c2ccccc2CC1c1c[nH]c2ccccc12` (stereo not given), the TGI with SK-OV-3 ovarian, in the assay on HCC-2998 colon, with KM12 colon, with SF-539 CNS, in the assay with OVCAR-5 ovarian and in the assay with SNB-75 CNS was greater than 100 µM each time. In addition, the TGI in the assay with TK-10 renal and in the assay on CCRF-CEM leukemia was greater than 100 µM each time.
`COc1ccc2c(c1)OCCC1=C2SCC2(C)CCN=C12` (stereo not given): the TGI with SK-OV-3 ovarian, in the assay with KM12 colon, with SF-539 CNS, in the assay with SNB-75 CNS, in the assay with TK-10 renal and in the assay with CCRF-CEM leukemia was greater than 100 µM each time.
Consider `CN(C)CCNc1nc(-c2cccs2)cc(-c2cccs2)n1`, for which the TGI in the assay with HCC-2998 colon was 25.3 µM; in the assay on KM12 colon, 28.5 µM; in the assay with SF-539 CNS, 28.5 µM; in the assay on OVCAR-5 ovarian, 23.9 µM; with SNB-75 CNS it was 68.2 µM; in the assay with TK-10 renal, 29 µM. For the same compound, in the assay on CCRF-CEM leukemia, the TGI was determined as 24.1 µM.
As to `OCC(O)C(OC1OC(CO)C(O)C(O)C1O)c1nn(-c2ccccc2)c2nc3cc(Cl)ccc3nc12` (stereo not given), the TGI with SK-OV-3 ovarian, in the assay on HCC-2998 colon, with KM12 colon, in the assay with SF-539 CNS, with OVCAR-5 ovarian and in the assay on SNB-75 CNS was greater than 100 µM each time. For the same compound, the TGI in the assay on TK-10 renal and in the assay on CCRF-CEM leukemia was greater than 100 µM in each case.
As to `NCP(=O)(O)OCC(=O)O`, the TGI in the assay with SK-OV-3 ovarian, in the assay with KM12 colon, with SF-539 CNS, with OVCAR-5 ovarian, in the assay on SNB-75 CNS and in the assay with TK-10 renal was greater than 100 µM in each case. In the assay with CCRF-CEM leukemia, this compound came in with a TGI greater than 100 µM.
On to `N#C/C(=C\c1ccccc1Br)C(=O)c1ccccc1`, for which the TGI was greater than 100 µM in the assay on SK-OV-3 ovarian; greater than 100 µM in the assay with HCC-2998 colon; greater than 100 µM in the assay on KM12 colon; greater than 100 µM in the assay on SF-539 CNS; 99.1 µM in the assay with OVCAR-5 ovarian; greater than 100 µM in the assay with TK-10 renal. In addition, the TGI in the assay with CCRF-CEM leukemia was found to be 38.6 µM.
Regarding `Cc1ccc(NC(=O)CCC(=O)C(C#N)c2ccccc2)cc1C` (stereo not given), the TGI in the assay on SK-OV-3 ovarian, with HCC-2998 colon, in the assay with KM12 colon, with SF-539 CNS, in the assay on OVCAR-5 ovarian and with TK-10 renal was greater than 100 µM in each case. This compound gave a TGI in the assay with CCRF-CEM leukemia greater than 100 µM.
Take `CC(=O)CC(=O)/C=C/c1cccs1`: the TGI in the assay with SK-OV-3 ovarian, in the assay on KM12 colon, in the assay on SF-539 CNS, in the assay with OVCAR-5 ovarian, in the assay on TK-10 renal and in the assay on CCRF-CEM leukemia was greater than 100 µM in each case.
Take `CCOC(=O)NC(=O)c1c[nH]c(=O)[nH]c1=O`: the TGI in the assay with SK-OV-3 ovarian, with HCC-2998 colon, with KM12 colon, in the assay with SF-539 CNS, with OVCAR-5 ovarian and in the assay on SNB-75 CNS was greater than 100 µM throughout. Besides, the TGI in the assay with TK-10 renal and with CCRF-CEM leukemia was greater than 100 µM in each case.
Regarding `Nc1nc(N)c(-c2ccccc2)c(CCC(=O)Nc2ccc(Cl)cc2)n1`, the TGI in the assay with SK-OV-3 ovarian, in the assay with HCC-2998 colon, with KM12 colon, in the assay with SF-539 CNS, in the assay with OVCAR-5 ovarian and with SNB-75 CNS was greater than 100 µM in each case. The TGI in the assay on TK-10 renal and with CCRF-CEM leukemia was greater than 100 µM in each case.
For `CCOC(=O)/N=c1/nc(N(C)C)ss1`, the TGI in the assay on SK-OV-3 ovarian, in the assay with HCC-2998 colon, in the assay with KM12 colon, in the assay with SF-539 CNS, in the assay on OVCAR-5 ovarian and with SNB-75 CNS was greater than 100 µM in each case. In addition, the TGI in the assay on TK-10 renal and with CCRF-CEM leukemia was greater than 100 µM in each case.
Consider `NS(=O)(=O)c1ccc(NC(=O)COC(=O)c2cccc3c(=O)c4ccccc4[nH]c23)cc1`, for which the TGI in the assay with SK-OV-3 ovarian was 43.3 µM; in the assay on HCC-2998 colon, greater than 100 µM; with KM12 colon it was greater than 85.5 µM; in the assay on SF-539 CNS, 32.7 µM; with OVCAR-5 ovarian, greater than 90 µM; in the assay on SNB-75 CNS, 38.5 µM. For the same compound, the TGI in the assay on TK-10 renal is 77.1 µM; with CCRF-CEM leukemia, greater than 89.5 µM.
`Cc1ccc(S(=O)OC23CC4CC(CC(C4)C2)C3)cc1` (stereo not given): the TGI in the assay with SK-OV-3 ovarian, with HCC-2998 colon, in the assay on KM12 colon, in the assay on SF-539 CNS, in the assay on OVCAR-5 ovarian and with SNB-75 CNS was greater than 100 µM in each case. The compound also showed a TGI in the assay with TK-10 renal greater than 100 µM.
In the case of `C#CCN(C)C(=O)N(CC#C)N=O`, the TGI with SK-OV-3 ovarian, in the assay with KM12 colon, with SF-539 CNS, with OVCAR-5 ovarian, in the assay on SNB-75 CNS and with TK-10 renal was greater than 100 µM throughout. Further, in the assay on CCRF-CEM leukemia, the TGI was greater than 100 µM.
